Data published in US20140357720A1, “NOVEL PHYTOSPHINGOSINE DERIVATIVES, AND A COSMETIC COMPOSITION COMPRISING THE SAME FOR PREVENTING AND AMELIORATING INFLAMMATORY SKIN DISEASES AND HYPERKERATOSIS DISEASES” (THE CATHOLIC UNIVERSITY OF KOREA INDUSTRY-ACADEMIC …, priority 2011, published 2014).
Blank lines part the entries; values can stand above or below the compound they belong to.

How the values were obtained:
NF-κB [1] = assay: Phosphorylation and degradation of IκBα and phosphorylation of NF-κB in TPA-stimulated skin keratinocytes (western blot); format: cell-based, human
Description: (§1) Herein, in order to verify the effect of novel synthetic YG-II-6 compounds and their lead compound, phytosphingosine, on phosphorylation and degradation of IκBα, which is a protein that inhibits the activity of NF-κB by forming a complex with NF-κB, skin keratinocytes were pre-treated with respective compounds for 1 hour and then stimulated with 400 nM TPA for 15 minutes and 30 minutes, respectively. In order to verify the phosphorylation of NF-κB and the expression level of NF-κB in the cytoplasm and nucleus, skin keratinocytes were stimulated for 15 minutes and 1 hour, respectively. The results were confirmed by western blot analysis. In addition, the nuclear translocation of NF-κB was confirmed through reaction with antibodies, fluorescent labeling, and direct observation by microscopy. In order to verify the activity of the respective compounds at the transcription stage, cells were transfected with plasmids labeled with NF-κB luciferase reporter, and the luciferase activity was measured by the luciferase assay. In addition, the phosphorylation of IκBα and NF-κB was measured in the PTA-stimulated mouse skin.

NF-κB [2] = assay: Nuclear translocation of NF-κB in TPA-stimulated skin keratinocytes (immunostaining, microscopy); format: cell-based, human; settings: TPA stimulation, FIG. 1B
Description: as §1

NF-κB [3] = assay: NF-κB luciferase reporter assay, TPA stimulation; format: cell-based; settings: FIG. 1C
Description: as §1

ERK1/2, p38, JNK = assay: MAP kinase phosphorylation in TPA-stimulated skin keratinocytes (western blot); format: cell-based, human; settings: FIG. 4
Description: In order to verify the effects of the respective compounds on MAP kinase, skin keratinocytes were treated with the respective compounds for 1 hour, and then stimulated with 400 nM TPA for 15 minutes. The level of phosphorylation was confirmed by western blot assay.

[4] = tested on: human-derived keratinocytes; assay: Cytotoxicity on human-derived keratinocytes (WST-1 reagent); format: cell-based; settings: WST-1, FIG. 7A
Description: (§2) Therefore, in order to verify the degree of the cytotoxicity of the YG-II-6 compounds, their cytotoxicity on human-derived keratinocytes was confirmed by using the WST-1 reagent. In order to verify the effects of the compounds on the expression of proteins associated with apoptosis, the keratinocytes were treated with corresponding concentrations of the respective compound samples and stimulated with TPA for 24 hours, and the expression levels of proteins were confirmed by western blot assay. In addition, human-derived keratinocytes and primary culture skin keratinocytes were treated with the compounds, and after 24 hours, subjected to FITC staining and TUNEL assay, and the skin tissues isolated from TPA-induced mice was subjected to FITC staining.

[5] = tested on: human-derived keratinocytes and primary culture skin keratinocytes; assay: Apoptosis in keratinocytes (FITC staining and TUNEL assay); format: cell-based; settings: 24 hours, FIGS. 7C to 7E
Description: as §2

mouse skin tissues = assay: Apoptosis in skin tissues isolated from TPA-induced mice (FITC staining); format: in vivo; settings: FIGS. 7C to 7E
Description: as §2

[6] = overall conclusion of section 2-1

SMILES: CCCCCCCCCCCCCC[C@@H](O)[C@@H](O)[C@H](CO)NC(=O)/C=C/C(=O)O [fYG-II-6, (E)-4-oxo-4-(((2S,3S,4R)-1,3,4-trihydroxyoctadecan-2-yl)amino)but-2-enoic acid]
- inhibitory effect on the NF-κB activation, fYG-II-6 compared with mYG-II-6 (NF-κB [1]; [6]): relatively greater inhibitory effect than mYG-II-6

- NF-κB luciferase activity increased by TPA stimulation (NF-κB [3]): inhibited
SMILES: CCCCCCCCCCCCCC[C@@H](O)[C@@H](O)[C@@H](N)CO [phytosphingosine]
- activation of NF-κB (phosphorylation and degradation of IκBα) (NF-κB [1]; [6]): inhibited
- phosphorylation of IκBα and NF-κB increased by TPA stimulation (NF-κB [1]; skin keratinocytes, 1 hour pre-treatment, 400 nM TPA, FIG. 1A): inhibited
- nuclear translocation of NF-κB (NF-κB [2]): inhibited
- inhibitory activity on phosphorylation of ERK1/2, p38, and JNK relative to the YG-II-6 compounds (ERK1/2, p38, JNK): relatively weaker inhibitory activity
- phosphorylation of ERK1/2, p38, and JNK (ERK1/2, p38, JNK; skin keratinocytes, 1 hour treatment, 400 nM TPA 15 minutes): no or little inhibitory effect
- concentration at which cytotoxicity was shown [4]: 5 to 10 µM
- apoptosis in the TPA-stimulated cells [5]: induced apoptosis
- apoptosis in the mouse skin tissues (mouse skin tissues): induced apoptosis
